US11730731B2 (INVENTAGE LAB INC., priority 2021, dated 2023)
Counter-ions that a name gives are not always drawn.

Experiments:
[1] = system: p65 NF-κB; experiment: Western blotting of NF-κB activity in LPS-treated SW982 cells; assay type: cell-based, human; conditions: LPS 1 ug/ml, 0.5, 1, 10, 100 uM, 30 minutes, naltrexone effect at 1 uM
Method: (§1) 1× Cell lysis buffer (Cell signaling, CA, USA) was mixed with protease and a phosphatase inhibitor and added to SW982 cells. After extracting the protein from the cells, the concentration was measured, and the same amount of protein was developed on an SDS-polyacrylamide gel, and transferred to an ECL nitrocellulose membrane (Amersham Pharmacia Biotech, Inc., Piscataway, N.J., USA) and blocked with nonfat dried milk for 1 hour. Thereafter, the reaction was performed with the first antibody (p65 NF-κB, phospho p65 NF-κB or calnexin; Cell signaling, CA, USA), while shaking at 4° C. for 24 hours. Then, after shaking and washing 3 times for 10 minutes with PBST buffer, the secondary antibody was incubated with anti-mouse or anti-rabbit HRP-conjugated secondary antibody for 1 hour at room temperature, and reacted with the protein band on the membrane using Supersignal west pico ECL solution (Thermo Fisher Scientific Inc.). The results were visualized with the Bio-Rad Gel Documentation system (Bio-Rad Laboratories, Hercules, Calif., USA), and the results were shown in FIG. 26.
as §1, with “phospho p65 NF-κB, p-ERK, ERK, p-JNK, JNK, p-p38, p38 or calnexin;” for “phospho p65 NF-κB or calnexin;”, “Scientific Inc.). […]” for “Scientific Inc.). The results were visualized with the Bio-Rad Gel Documentation system (Bio-Rad Laboratories, Hercules, Calif., USA), and the results were shown in FIG. 26.”

[2] = system: MAPKs (ERK, JNK, p38); experiment: Western blotting of MAPKs activity in LPS-treated SW982 cells; assay type: cell-based, human; conditions: LPS 1 ug/ml, 0.5, 1, 10, 100 uM, 30 minutes, naltrexone effect at 1 uM
Method: (§2) Western blotting was performed in the same manner as in Example 6.3. The first antibody used at this time is an antibody against p-ERK, ERK, p-JNK, JNK, p-p38, p38 and calnexin (Cell signaling, CA, USA), and the secondary antibody is anti-mouse or anti-rabbit HRP-binding secondary antibody.
1× Cell lysis buffer (Cell signaling, CA, USA) was mixed with protease and a phosphatase inhibitor and added to SW982 cells. After extracting the protein from the cells, the concentration was measured, and the same amount of protein was developed on an SDS-polyacrylamide gel, and transferred to an ECL nitrocellulose membrane (Amersham Pharmacia Biotech, Inc., Piscataway, N.J., USA) and blocked with nonfat dried milk for 1 hour. Thereafter, the reaction was performed with the first antibody (p65 NF-κB, phospho p65 NF-κB, p-ERK, ERK, p-JNK, JNK, p-p38, p38 or calnexin; Cell signaling, CA, USA), while shaking at 4° C. for 24 hours. Then, after shaking and washing 3 times for 10 minutes with PBST buffer, the secondary antibody was incubated with anti-mouse or anti-rabbit HRP-conjugated secondary antibody for 1 hour at room temperature, and reacted with the protein band on the membrane using Supersignal west pico ECL solution (Thermo Fisher Scientific Inc.). The results were visualized with the Bio-Rad Gel Documentation system (Bio-Rad Laboratories, Hercules, Calif., USA), and the results are shown in FIG. 35.

[3] = system: p65 NF-κB; experiment: Western blotting of NF-κB activity in LPS-treated Raw 264.7 cells; assay type: cell-based, mouse; conditions: LPS 1 ug/ml, 0.5, 1, 10, 100 uM, 30 minutes
[4] = system: MAPKs (ERK, JNK, p38); experiment: Western blotting of MAPKs activity in LPS-treated Raw 264.7 cells; assay type: cell-based, mouse; conditions: LPS 1 ug/ml, 0.5, 1, 10, 100 uM, 30 minutes
Method: as §2
Western blotting was performed in the same manner as in Example 7.4.

[5] = system: pro-inflammatory cytokines (TNF-α, IL-1β, IL-6, IL-17, iNOS) in SW982 cells; experiment: RT-qPCR of LPS-induced pro-inflammatory cytokine expression in SW982 cells; conditions: LPS 1 ug/ml, 0.5, 1, 10, 100 uM, 6 hours
Text: (§4) Lipopolysaccharide (LPS) was purchased from Sigma-Aldrich (St. Louis, Mo., USA).

[6] = system: pro-inflammatory cytokines (TNF-α, IL-1β, IL-6, IL-17, iNOS) in Raw 264.7 cells; experiment: RT-qPCR of LPS-induced pro-inflammatory cytokine expression in Raw 264.7 cells; conditions: LPS 1 ug/ml, 0.5, 1, 10, 100 uM, 6 hours
Text: as §4

[7] = system: experimental autoimmune encephalomyelitis (EAE); experiment: Spinal cord histology, hematoxylin/eosin staining (inflammation score), EAE mice; assay type: in vivo; conditions: day 30, spinal cord, Fytarex 3 mg/kg, Revia 1 mg/kg, Q-DDS 1 mg/mouse
Method: (§3) After mouse euthanasia, spinal cord tissue was extracted, hematoxylin/eosin staining and Luxol Fast Blue staining were performed, and MBP-targeted immunohistochemical staining was performed, and histological evaluation was performed through blind evaluation.
On the 30th day which is the last day of the experiment, mouse was sacrificed, and the mouse spinal cord tissue was extracted and paraffin-embedded slides were prepared and then stained with hematoxylin/eosin, and the spinal cord tissue was photographed at 50 and 200 magnifications. Then, histological scores were measured according to the histological evaluation criteria of Table 36 below to evaluate the distribution of inflammatory cells.

[8] = system: experimental autoimmune encephalomyelitis (EAE); experiment: Spinal cord histology, Luxol Fast Blue staining (demyelination score), EAE mice; assay type: in vivo, mouse
Method: as §3
On the 30th day which is the last day of the experiment, mouse was sacrificed, and the mouse spinal cord tissue was extracted and paraffin-embedded slides were prepared and then stained with Luxol Fast Blue, and the spinal cord tissue was photographed at 50 and 200 magnifications. In Luxol Fast Blue staining, myelin is stained from blue to green, and nerves are stained purple, and through this, the degree of demyelination was analyzed in the EAE model by confirming the neural structure in the spinal cord. Demyelination was analyzed according to the criteria described in Table 38 below and measured as a score.

[9] = system: myelin basic protein (MBP); experiment: Immunohistochemistry staining of spinal cord with anti-myelin basic protein antibody, EAE mice; assay type: in vivo; conditions: day 30, spinal cord IHC, Fytarex 3 mg/kg, Revia 1 mg/kg, Q-DDS 1 mg/mouse
Method: as §3
On the 30th day which is the last day of the experiment, mouse was sacrificed, and the mouse spinal cord tissue was extracted and paraffin-embedded slides were prepared and then myelin basic protein (MBP) was stained immunohistochemically, and the spinal cord tissue was photographed at 50 and 200 magnifications. This is to confirm demyelination through immunohistochemical analysis using an antibody against myelin basic protein (MBP), a component of myelin.

[10] = system: experimental autoimmune encephalomyelitis (EAE); experiment: EAE clinical score in experimental autoimmune encephalomyelitis mice (multiple sclerosis model); assay type: in vivo; conditions: Example 5, EAE mouse; Q-DDS 1 mg/mouse sc once on day 3; Fytarex 3 mg/kg oral daily; Revia oral daily; mean±SEM
Method: As an experimental autoimmune encephalomyelitis mouse model (Mouse Experimental Autoimmune Encephalomyelitis: EAE), 6 to 10 week-old female mice of C57BL/6 strain were prepared.
Myelin-oligodendrocyte glycoprotein (MOG) was dissolved in phosphate-buffered saline (PBS) to be 1 mg/mL, and was emulsified by mixing at 1:1 (v/v) with 5 mg/mL Complete Freund's adjuvant. 100 μl of this was subcutaneously injected into both sides of the mouse, and then 400 μl of 2 pg/mL pertussis toxin was intraperitoneally injected (first immunization, day 0). On the second day, 400 μl of 2 μg/mL pertussis toxin was intraperitoneally injected a second time. On the third day after the first immunization, the test was performed by separating the experimental group.
Then, the occurrence and extent of clinical symptoms were regularly observed until the end of the experiment (The 30th day). The clinical symptom level was assigned a score of 0 to 5 after evaluating the functionality of the tail and four legs according to the criteria in Table 34 below, and was used as the EAE clinical score.

For `Oc1ccc2c3c1O[C@H]1[C@H](O)CC[C@@]4(O)[C@@H](C2)N(CC2CC2)CC[C@]314` [6β-naltrexol], the “phosphorylation of p65 NF-κB increased by LPS” value [1] was “no inhibitory effect”, the “phosphorylation of MAPKs (ERK1/2, JNK, p38) increased by LPS” value [2] was “no inhibitory effect” and the “p65 NF-κB phosphorylation increased by LPS” value [3] was “inhibited”. For the same compound, the “phosphorylation of MAPKs (ERK1/2, JNK, p38)” value [4] was “no inhibitory effect”, the “expression of cytokines (iNOS, IL-1β, IL-6, TNF-α) induced by LPS” value [5] was “suppressed at all concentrations” and the “expression of cytokines (iNOS, IL-1β, IL-6, TNF-α) induced by LPS” value [6] was “suppressed at all concentrations”.
`O=C1CC[C@@]2(O)[C@H]3Cc4ccc(O)c5c4[C@@]2(CCN3CC2CC2)[C@H]1O5` [Revia ®] was tested, and the “Inflammation score (histological score), Mean” value [7] was 1.42, the “Demyelination score (histological score), Mean” value ([8]; EAE mice, day 30, spinal cord, Luxol Fast Blue, Fytarex 3 mg/kg, Revia 1 mg/kg, Q-DDS 1 mg/mouse) was 0.61 and the “MBP positive area/total spinal area, Mean” value [9] was 58.23.
With `CCCCCCCCc1ccc(CCC(N)(CO)CO)cc1` [Fytarex®, Fingolimod] the EAE clinical score [10] was 1.67±0.13.
With `O=C1CC[C@@]2(O)[C@H]3Cc4ccc(O)c5c4[C@@]2(CCN3CC2CC2)[C@H]1O5` [Revia®, naltrexone hydrochloride] the “demyelination histological score (Luxol Fast Blue, spinal cord)” value ([8]; Example 5, EAE mouse, day 30, Q-DDS 1 mg/mouse sc once, Fytarex and Revia oral daily, mean±SEM) was “decrease in histological score and demyelination”.
